Assays:
[1] = DBP products in mice liver mitochondria before and after DBPs treatment, HPTLC; format: in vivo, Swiss Albino mice; conditions: one hour after i.p. 4:1 mixture of 3,8-(OH)2-DBP and 3-OH-DBP 20 mg/Kg
Method: Mitochondria were isolated from heart and liver of chicken, goat and mice following a published procedure (Liu Y, Deng F, Zhao R and Qu S, Chemosphere, 40(8):851-854, 2000). […] The tissue was cut into small pieces, homogenized and centrifuged at 900 g for one minute. The supernatant was again centrifuged twice, for 20 minutes each time at 900 g. The sediment at each step was discarded. The clear supernatant was centrifuged twice at 12,000 g, 20 minutes each time, to form pellets of a mitochondria-enriched fraction. The fraction was divided into two parts. One part was resuspended in a measured volume of distilled water and sonicated (10 min×2). […] The two extracts were subjected to comprehensive HPTLC and HPLC analyses for detection and quantitation of DBPs and their equivalents. […] One hour after administration the animals were sacrificed and mitochondria from liver were isolated and analyzed as described for Example 6. […] Mobile Phase—Chloroform:Methanol 90:10 Sample application—CAMAG LINOMAT 5 (Automated applicator) Detection—240 nm (CAMAG TLC SCANNER 3) 3-OH-DBP and 3,8-(OH)2-DBP (and their conjugates) were detected in mitochondria of control mice by HPTLC. Administration of DBPs to the animals increased the amount of DBPs and its products in mitochondria as detected by using authentic markers of the two DBPs (Table 2).

[2] = Coenzyme Q in mice blood plasma and organs after oral feeding, HPLC; format: in vivo, Swiss albino mice; conditions: oral each 5 mg/Kg b.w. per day for 5 days
Method: One year old caged stressed Sprague-Dawley rats (250-270 gms) were fed the following, individually or in combination after suspension in 0.8% carboxymethyl cellulose: CoQ10 (5 mg/Kg b.w./day) and 3,8-(OH)2-DBP (5 mg/Kg b.w./day) for 5 days. Blood was collected by puncture of the retro-orbital plexus. The plasma was separated by centrifugation, extracted with methanol and subjected to HPLC. In another experiment, Swiss albino mice (20±2 g) were fed orally with—(a) 3,8-(OH)2-DBP; (b) CoQ10; (c) a combination of 3,8-(OH)2-DBP and CoQ10 and (d) 3,8-(OH)2-DBP and CoQ10 in a clathrated form with Shilajit-fusoms (each 5 mg/Kg b.w.), per day, for 5 days. The animals were subjected to hypoxic stress for 1 hour each day for 3 days from the 3rd day of the experiment. After the stipulated time-period, the content of CoQ10 and their conjugates with DBP were estimated in heart, kidney, liver (in wet weight basis) and in blood, by HPLC, after proper extraction from the tissues according to the procedure depicted in the literature (Rousseau, G and Varin, F, Determination of Ubiquinone-9 and 10 levels in rat tissues and blood by High Performance Liquid Chromatography with Ultraviolet detection. J. Chromat. Sci., 36(5): 247-252, 1998).
Column—RP C18 Xterra [250×4 mm]
(§1) Mobile phase—Methanol:Acetonitrile:Ethanol 30:30:40
(§2) Detection—PDA 275 nm for CoQ10
Bioavailability was more when CoQ10 and 3,8-(OH)2-DBP using the fulvic acid system. A systemic increment of CoQ10 was also observed in mice blood plasma and a few organs upon oral feeding of this formulation. The extent of the increment of CoQ10 was more when CoQ10 and 3,8-(OH)2-DBP were targeted to mitochondria using the fulvic acid delivery system (Table 5). A similar trend in the increment was also observed in the case of CoQ10-DBP conjugates when the fulvic acid system was used. […] Thus, concurrent supplementation of CoQ10 and 3,8-(OH)2-DBP [or 3-OH-DBP, which is systemically converted into 3,8-(OH)2-DBP] using a fulvic acid delivery system would efficiently perform their targeting to mitochondria. This can be regarded as effective therapeutic strategy against stress-induced oxidative damage of cells and DNA damage due to old-age.

[3] = tested on: stress-induced lipid peroxidation of mouse brain; test: Stress-induced lipid peroxidation of mouse brain (thiobarbituric acid reaction); format: in vivo, Swiss albino mice; conditions: oral each 5 mg/Kg b.w. per day for 5 days, hypoxic stress, control 1.169
Method: (§3) Swiss albino mice (20±g) were fed orally with—(a) 3,8-(OH)2-DBP; (b) CoQ10; (c) a combination of 3,8-(OH)2-DBP and CoQ10 and (d) 3,8-(OH)2-DBP and CoQ10 in a clathrated form with fusoms (each 5 mg/Kg b.w.), per day, for 5 days. The animals were subjected to hypoxic stress for 1 hour each day for 3 days from the 3rd day of the experiment. After the stipulated time-period, brain and liver of the animals were collected and mitochondria from the liver were separated as described previously (Liu Y, Deng F, Zhao R and Qu S, Chemosphere, 40(8):851-854, 2000). Lipid peroxidation in brain and liver-mitochondria was estimated by the method of Ohkawa et al. (Ohkawa H, Ohishi N and Yagi K, Assay for lipid peroxides in animal tissues by thiobarbituric acid reaction. Anal. Biochem., 95:351-358, 1979).

[4] = tested on: stress-induced lipid peroxidation of mouse liver mitochondria; test: Stress-induced lipid peroxidation of mouse liver mitochondria (thiobarbituric acid reaction); format: in vivo, Swiss albino mice; conditions: oral each 5 mg/Kg b.w. per day for 5 days, hypoxic stress, control 0.495
Method: as §3

[5] = Stability of reduced CoQ10 (CoQH2) by 3,8-(OH)2-DBP at different pH, HPLC; format: physicochemical; conditions: for Reduced CoQ10 remaining in control: no DBP
Method: Two mg of solid CoQ10 (SRL, India), in an airtight vial was dissolved in 1 ml of methanol. After thorough vortexing, 5 mg of solid NaBH4 (Merck India) was added, 1 mg at a time, to the yellow colored solution of CoQ10 in methanol and kept in an ice-bath for a few minutes. The vial was kept shut to avoid contact with air but opened occasionally to avoid generation of pressure inside due to accumulation of hydrogen. After the reduction reaction, a clear colorless solution was obtained to which methanolic solution of 3,8-(OH)2-DBP with a concentration of 1 mg/ml (>90% pure) was added in a ratio of 1:1 to obtain a final concentration of the mixture—reduced CoQ10 […] DBP 0.5 mg/ml. This solution was analyzed by HPLC for reduced CoQ10 content at different time intervals. A control was prepared in similar fashion except that no DBP was added. The pH of the solutions was determined to be 8 using pH paper. To obtain solutions of reduced CoQ10 with pH 7 and pH 3, aliquots of concentrated HCl were added to the methanolic solution of reduced CoQ10 at pH 8. Afterwards, a solution of DBP was added and analysis by HPLC at different time intervals was conducted, as before.
as §1
Detection—PDA 290 nm for reduced CoQ10

[6] = Inhibition of CoQ-CoQH2 aberrant metabolite formation during red-ox recycling, HPLC; format: physicochemical; conditions: in vitro
Method: Methanolic solution of coenzyme Q10 (1 mg/ml) was reduced by NaBH4 to pH 8 when the yellow solution became colorless. About 1 mg of 3,8-(OH)2-DBP was added to the solution and the mixture was analyzed by HPLC at different time intervals (0-80 min). A control CoQ10, without 3,8-(OH)2-DBP, was prepared similarly and analyzed at different time intervals (0-80 min).
Column—NovaPak RP C18 [250×4 mm]
as §1, §2
Reduced CoQ10 (CoQH2) has a tendency to rapidly autoxidize in the presence of air. […] The aberrant metabolites increased rapidly with time (Table 10).

[7] = Stability of reduced CoQ10 (CoQH2) by 3,8-(OH)2-DBP at different pH, HPLC; format: physicochemical

O=c1oc2cc(O)ccc2c2cc(-c3cc4c(cc3O)c(=O)oc3cc(O)ccc34)c(O)cc12 [3,8-(OH)2-DBP-dimer, 3,3′,8,8′-tetrahydroxy-9,9′-bis-dibenzo-α-pyrone]
Amount in mitochondria after DBP treatment [1]: 28.6 nmol/gm wet wt

COC1=C(OC)C(=O)C(C/C=C(\C)CC/C=C(\C)CC/C=C(\C)CC/C=C(\C)CC/C=C(\C)CC/C=C(\C)CC/C=C(\C)CC/C=C(\C)CC/C=C(\C)CCC=C(C)C)=C(C)C1=O [CoQ10]
concentration at 5 days ([2]; Swiss albino, mouse, blood): 810 nM
Coenzyme Q: Heart ([2]; wet weight): 35.69 nmol/gm
Coenzyme Q: Kidney ([2]; wet weight): 16.51 nmol/gm
Coenzyme Q: Liver ([2]; wet weight): 19.41 nmol/gm
OD Values at 532 nm (lipid peroxidation) [3]: 1.147
OD Values at 532 nm (lipid peroxidation) [4]: 0.467

COc1c(O)c(C)c(C/C=C(\C)CC/C=C(\C)CC/C=C(\C)CC/C=C(\C)CC/C=C(\C)CC/C=C(\C)CC/C=C(\C)CC/C=C(\C)CC/C=C(\C)CCC=C(C)C)c(O)c1OC [Reduced CoQ10, reference compound]
Regenerated CoQ10 in absence of 3,8-(OH)2-DBP ([5]; autoxidation of CoQH2, pH 8, 0 min): 0 µg/mL
Regenerated CoQ10 in absence of 3,8-(OH)2-DBP ([5]; autoxidation of CoQH2, pH 8, 60 min): 184.68 µg/mL
Regenerated CoQ10 in absence of 3,8-(OH)2-DBP ([5]; autoxidation of CoQH2, pH 8, 80 min): 202.28 µg/mL
Regenerated CoQ10 in absence of 3,8-(OH)2-DBP ([5]; autoxidation of CoQH2, pH 8, 100 min): 109.23 µg/mL
Reduced CoQ10 remaining in control ([5]; pH 3, 0 hour): 100.00%
Reduced CoQ10 remaining in control ([5]; pH 3, 48 hour): 57.25%
Reduced CoQ10 remaining in control ([5]; pH 3, 72 hour): 61.95%
Reduced CoQ10 remaining in control ([5]; pH 7, 0 hour): 100.00%
Reduced CoQ10 remaining in control ([5]; pH 7, 48 hour): 7.73%
Reduced CoQ10 remaining in control ([5]; pH 7, 72 hour): 3.70%
Reduced CoQ10 remaining in control ([5]; pH 8, 0 min, methanol): 100.00%
Reduced CoQ10 remaining in control ([5]; pH 8, 40 min, methanol): 79.18%
Reduced CoQ10 remaining in control ([5]; pH 8, 60 min, methanol): 54.09%
Reduced CoQ10 remaining in control ([5]; pH 8, 80 min, methanol): 33.17%
Reduced CoQ10 remaining in control ([5]; pH 8, 100 min, methanol): 20.87%
Relative percentage of aberrant metabolites in absence of 3,8-(OH)2-DBP ([6]; pH 8, 0 minutes): 0%
Relative percentage of aberrant metabolites in absence of 3,8-(OH)2-DBP ([6]; pH 8, 40 minutes): 93%
Relative percentage of aberrant metabolites in absence of 3,8-(OH)2-DBP ([6]; pH 8, 80 minutes): 96%
Regenerated CoQ10 in absence of 3,8-(OH)2-DBP ([7]; autoxidation of CoQH2, pH 8, 20 min): 5.49 µg/mL
Regenerated CoQ10 in absence of 3,8-(OH)2-DBP ([7]; autoxidation of CoQH2, pH 8, 40 min): 72.98 µg/mL
